One data set deals with viability of cells. As to the kind of experiment: CellTiter-Glo luminescent cell viability assay (ATP). In kind it is cell-based. Particulars: up to 100 μM, 1 and 24 h. The method, then: (A) Full length AKAP-Lbc (AKAP13) and the indicated GEFs were transiently expressed in HEK293 cells. […] (B) Scaff10 inhibits Gα12- but not Gαq-mediated RhoA activation. The indicated Gα12 and Gαq-mutants were transiently co-expressed with AKAP-Lbc and p63RhoGEF in HEK293 cells as indicated. The cells were left untreated or incubated with Scaff10 (50 μM). The fraction of active RhoA was determined using Rhotekin pulldown assays. Shown is one representative out of three experiments. All GEF constructs were in pCMV3a and Myc-tagged (30 ng per transfection). Expression of AKAP-Lbc, LARG and PDZ-RhoGEF is shown in Fig 7 of the main manuscript. […] Lower panel: Corresponding values of fluorescence to upper panel. […] Lower panel: Corresponding values of fluorescence to upper panel. (B) F norm = normalised fluorescence (fluoresence steady state/fluorescence initial state) indicated in ‰. […] The viability of the indicated cells was determined using a CellTiter-Glo®Luminescent Cell Viability Assay (Promega, Wisconsin, USA) according to the manufacturer's instructions. The assay is based on the quantification of ATP as an indicator of metabolically active cells. […] Viability was assessed after 1 and 24 h incubation with Scaff10-8 in the indicated concentrations. An equal volume of CellTiter-Glo Reagent was added, plates were shaken and luminescence monitored over time with the plates held at 22°C. […]

The test system of data set [1] is IMCD, MCD4, HEK293, MCF7 and H9C2 cells. As to the kind of experiment: MTS cytotoxicity assay. In kind it is cell-based, rat, mouse, human. Particulars: 3–100 μM, 24–72 h. On the procedure:
The potential cytotoxicity of Scaff10-8 on primary IMCD and several permanent cell lines (MCF7, H9C2, HEK293, MCD4) was assessed using the tetrazolium compound-based CellTiter 96 AQueous One Solution Cell Proliferation (3-(4,5-dimethylthiazol-2-yl)-5-(3-carboxymethoxyphenyl)-2-(4-sulfophenyl)-2H-tetrazolium) (MTS) assay according to the instructions of the manufacturer. In brief, the cells were seeded into 96 well plates (5,000 cells per well) and cultured in their appropriate medium Scaff10-8 (100 μM, 30 μm and 3 μm, 0.3% final DMSO concentration) were added, DMSO (0.3%) was included as a control. Staurosporine (1 μM) was included as a positive control. All conditions were tested in quadruplicate. At the indicated time points, the MTS reagent was added. Absorption was determined 4 h after addition of MTS reagent at 450 nm wavelength. The MST reagent absorbance at 450 nm is proportional to the amount of living cells. A blank measurement determined the medium absorption (background). Values were normalized to untreated cells after 24 h for each cell line.
Fig 6 Scaff10-8 is not cytotoxic. […] (B) Cytotoxicity was assessed after 24–72 h of incubation with Scaff10-8 (3, 30, 100 μM). […] Absorption was determined at 450 nm and was related to medium absorption (blank). […] Statistically significant differences were determined applying one-way ANOVA with posthoc Bonferroni. […]
For orientation: Tetrazolium dyes change colour on reduction, which living cells bring about.

The next data set concerns MCD4 cells. As to the kind of experiment: Uptake into cells by mass spectrometry. Particulars: data not shown. In kind it is in vitro ADME, mouse.

These results are taken from PMC5786306, “An AKAP-Lbc-RhoA interaction inhibitor promotes the translocation of aquaporin-2 to the plasma membrane of renal collecting duct principal cells” (PLoS ONE, 2018).

Regarding `COc1ccc(-c2coc3cc4oc(=O)c(CCC(=O)O)c(C)c4cc23)cc1` [Scaff10-8, 3-[3-(4-Methoxyphenyl)-5-methyl-7-oxo-furo[3,2-g]chromen-6-yl] propanoic acid], the “viability of cells (ATP quantitation)” value with viability of cells is “did not affect the viability”. Moreover, the “viability of cells (MTS)” value in data set [1] is recorded as “did not influence the viability”. For the same molecule, in the data set with MCD4 cells, the uptake into cells result is “confirmed the uptake”.
